Columns and labels:
Type in all cases: in vivo
[1] = tested on: redroot pigweed (Amaranthus retroflexus, AMR); assay: Pre-emerge test, redroot pigweed; conditions: 250 g ai/ha, 14 days after application, rating scale 0-100 (0 no damage, 100 complete death)
How it was run: (§1)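 Greenhouse pre-emergence test in 10 cm pots of sandy loam soil mix; seeds sown one day before treatment. Compounds in acetone were track-sprayed at 187 l/ha, 8–1000 g ai/ha. Phytotoxicity rated 0–100 (0 = no damage, 100 = complete death) at 14 days after application.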

[2] = tested on: velvetleaf (Abutilon theophrasti, ABT); assay: Pre-emerge test, velvetleaf; conditions: 250 g ai/ha, 14 days after application, rating scale 0-100 (0 no damage, 100 complete death)
How it was run: as §1

[3] = tested on: sicklepod (Cassia obtusifolia, CAO); assay: Pre-emerge test, sicklepod; conditions: 250 g ai/ha, 14 days after application, rating scale 0-100 (0 no damage, 100 complete death)
How it was run: as §1

[4] = tested on: ivyleaf morningglory (Ipomoea hederacea, IPH); assay: Pre-emerge test, ivyleaf morningglory; conditions: 250 g ai/ha, 14 days after application, rating scale 0-100 (0 no damage, 100 complete death)
How it was run: as §1

[5] = tested on: lambsquarters (Chenopodium album, CHA); assay: Pre-emerge test, lambsquarters; conditions: 250 g ai/ha, 14 days after application, rating scale 0-100 (0 no damage, 100 complete death)
How it was run: as §1

[6] = tested on: common ragweed (Ambrosia artemisiifolia L., AML); assay: Pre-emerge test, common ragweed; conditions: 250 g ai/ha, 14 days after application, rating scale 0-100 (0 no damage, 100 complete death)
How it was run: as §1

[7] = tested on: cocklebur (Xanthium strumariunt, XAS); assay: Pre-emerge test, cocklebur; conditions: 250 g ai/ha, 14 days after application, rating scale 0-100 (0 no damage, 100 complete death)
How it was run: as §1

[8] = tested on: green foxtail (Setaria viridis, SEV); assay: Pre-emerge test, green foxtail; conditions: 250 g ai/ha, 14 days after application, rating scale 0-100 (0 no damage, 100 complete death)
How it was run: as §1

[9] = tested on: barnyardgrass (Echinachloa crus-galli, ECC); assay: Pre-emerge test, barnyardgrass; conditions: 250 g ai/ha, 14 days after application, rating scale 0-100 (0 no damage, 100 complete death)
How it was run: as §1

[10] = tested on: johnsongrass (Sorghum halepense, SOH); assay: Pre-emerge test, johnsongrass; conditions: 250 g ai/ha, 14 days after application, rating scale 0-100 (0 no damage, 100 complete death)
How it was run: as §1

[11] = tested on: large crabgrass (Digitaria sanguinalis, DIS); assay: Pre-emerge test, large crabgrass; conditions: 250 g ai/ha, 14 days after application, rating scale 0-100 (0 no damage, 100 complete death)
How it was run: as §1

[12] = tested on: field corn (Zea mays L., var. Dekalb 535, CORN); assay: Pre-emerge test, crop damage field corn
How it was run: (§2)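 Sandy loam soil mix, 10 cm pots, sowing 1 d before treatment; spray volume 187 l/ha, rates 8–1000 g ai/ha in acetone; 0–100 visual rating at 14 d.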

[13] = tested on: soybean (Glycine max L., var. Pella 86, SOY); assay: Pre-emerge test, crop damage soybean
How it was run: as §2

[14] = tested on: upland rice (Oryza sp., var.Tebonnet, RICE); assay: Pre-emerge test, crop damage upland rice
How it was run: as §2

[15] = tested on: wheat (Triticum aestivum); assay: Pre-emerge test, crop damage wheat
How it was run: as §2

[16] = tested on: redroot pigweed (Amaranthus retroflexus, AMR); assay: Post-emerge test, redroot pigweed; conditions: 250 g ai/ha, 14 days after application, rating scale 0-100 (0 no damage, 100 complete death)
How it was run: (§3)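 Rates: 8-1000 g ai/ha. Carrier: acetone, 187 l/ha, 0.25% v/v surfactant. Stage: 2-3 leaves, sown 8-21 d earlier. Read-out: 0-100 phytotoxicity at 14 d.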

[17] = tested on: velvetleaf (Abutilon theophrasti, ABT); assay: Post-emerge test, velvetleaf; conditions: 250 g ai/ha, 14 days after application, rating scale 0-100 (0 no damage, 100 complete death)
How it was run: as §3

[18] = tested on: sicklepod (Cassia obtusifolia, CAO); assay: Post-emerge test, sicklepod; conditions: 250 g ai/ha, 14 days after application, rating scale 0-100 (0 no damage, 100 complete death)
How it was run: as §3

[19] = tested on: ivyleaf morningglory (Ipomoea hederacea, IPH); assay: Post-emerge test, ivyleaf morningglory; conditions: 250 g ai/ha, 14 days after application, rating scale 0-100 (0 no damage, 100 complete death)
How it was run: as §3

[20] = tested on: lambsquarters (Chenopodium album, CHA); assay: Post-emerge test, lambsquarters; conditions: 250 g ai/ha, 14 days after application, rating scale 0-100 (0 no damage, 100 complete death)
How it was run: as §3

[21] = tested on: common ragweed (Ambrosia artemisiifolia L., AML); assay: Post-emerge test, common ragweed; conditions: 250 g ai/ha, 14 days after application, rating scale 0-100 (0 no damage, 100 complete death)
How it was run: as §3

[22] = tested on: cocklebur (Xanthium strumariunt, XAS); assay: Post-emerge test, cocklebur; conditions: 250 g ai/ha, 14 days after application, rating scale 0-100 (0 no damage, 100 complete death)
How it was run: as §3

[23] = tested on: green foxtail (Setaria viridis, SEV); assay: Post-emerge test, green foxtail; conditions: 250 g ai/ha, 14 days after application, rating scale 0-100 (0 no damage, 100 complete death)
How it was run: as §3

[24] = tested on: barnyardgrass (Echinachloa crus-galli, ECC); assay: Post-emerge test, barnyardgrass; conditions: 250 g ai/ha, 14 days after application, rating scale 0-100 (0 no damage, 100 complete death)
How it was run: as §3

[25] = tested on: johnsongrass (Sorghum halepense, SOH); assay: Post-emerge test, johnsongrass; conditions: 250 g ai/ha, 14 days after application, rating scale 0-100 (0 no damage, 100 complete death)
How it was run: as §3

[26] = tested on: large crabgrass (Digitaria sanguinalis, DIS); assay: Post-emerge test, large crabgrass; conditions: 250 g ai/ha, 14 days after application, rating scale 0-100 (0 no damage, 100 complete death)
How it was run: as §3

[27] = tested on: field corn (Zea mays L., var. Dekalb 535, CORN); assay: Post-emerge test, crop damage field corn
How it was run: as §3

[28] = tested on: soybean (Glycine max L., var. Pella 86, SOY); assay: Post-emerge test, crop damage soybean
How it was run: as §3

[29] = tested on: upland rice (Oryza sp., var.Tebonnet, RICE); assay: Post-emerge test, crop damage upland rice
How it was run: as §3

[30] = tested on: wheat (Triticum aestivum); assay: Post-emerge test, crop damage wheat
How it was run: as §3

[31] = pre-emerge, 250 g ai/ha, 14 days after application, rating scale 0-100 (0 no damage, 100 complete death)
[32] = post-emerge, 250 g ai/ha, 14 days after application, rating scale 0-100 (0 no damage, 100 complete death)
[33] = var. Dekalb 535, Zea mays (field corn), in vivo, 14 days
[34] = var. Pella 86, Glycine max (soybean), in vivo, 14 days
[35] = var. Tebonnet, Oryza sp. (upland rice), in vivo, 14 days
[36] = Triticum aestivum (wheat), in vivo, 14 days

Structure (SMILES)	Pre-emerge Herbicidal Activity AMR (phytotoxicity rating) [1]	Pre-emerge Herbicidal Activity ABT (phytotoxicity rating) [2]	Pre-emerge Herbicidal Activity CAO (phytotoxicity rating) [3]	Pre-emerge Herbicidal Activity IPH (phytotoxicity rating) [4]	Pre-emerge Herbicidal Activity CHA (phytotoxicity rating) [5]	Pre-emerge Herbicidal Activity AML (phytotoxicity rating) [6]	Pre-emerge Herbicidal Activity XAS (phytotoxicity rating) [7]	Pre-emerge Herbicidal Activity SEV (phytotoxicity rating) [8]	Pre-emerge Herbicidal Activity ECC (phytotoxicity rating) [9]	Pre-emerge Herbicidal Activity SOH (phytotoxicity rating) [10]	Pre-emerge Herbicidal Activity DIS (phytotoxicity rating) [11]	Post-emerge Herbicidal Activity AMR (phytotoxicity rating) [16]	Post-emerge Herbicidal Activity ABT (phytotoxicity rating) [17]	Post-emerge Herbicidal Activity CAO (phytotoxicity rating) [18]	Post-emerge Herbicidal Activity IPH (phytotoxicity rating) [19]	Post-emerge Herbicidal Activity CHA (phytotoxicity rating) [20]	Post-emerge Herbicidal Activity AML (phytotoxicity rating) [21]	Post-emerge Herbicidal Activity XAS (phytotoxicity rating) [22]	Post-emerge Herbicidal Activity SEV (phytotoxicity rating) [23]	Post-emerge Herbicidal Activity ECC (phytotoxicity rating) [24]	other results
C[C@@H]1Oc2cc(F)c(-c3nn(C)c(C(F)(F)F)c3Cl)c3c2N(CC(=O)N3)C1=O [1-49, 8-[4-Chloro-1-methyl-5-(trifluoromethyl)-1H-pyrazol-3-yl]-9-fluoro-2-S-methyl-5H-pyrazino[1,2,3-de]-1,4-benzoxazine-3,6(2H, 7H)-dione]	100	100	100	100	100	100	85	100	100	100	100	100	100	100	100	100	80	100	100	100	Pre-emerge crop damage CORN (phytotoxicity rating) [12, 31]: 70; Pre-emerge crop damage SOY (phytotoxicity rating) [13, 31]: 50; Pre-emerge crop damage RICE (phytotoxicity rating) [14, 31]: 70; Pre-emerge crop damage WHEAT (phytotoxicity rating) [15, 31]: 60; Post-emerge Herbicidal Activity SOH (phytotoxicity rating) [25]: 65; Post-emerge Herbicidal Activity DIS (phytotoxicity rating) [26]: 99; Post-emerge crop damage CORN (phytotoxicity rating) [27, 32]: 35; Post-emerge crop damage SOY (phytotoxicity rating) [28, 32]: 80; Post-emerge crop damage RICE (phytotoxicity rating) [29, 32]: 85; Post-emerge crop damage WHEAT (phytotoxicity rating) [30, 32]: 50
Cn1nc(-c2c(F)cc3c4c2NC(=O)CN4C(=O)C(C)(C)O3)c(Cl)c1C(F)(F)F [1-52, 8-[4-Chloro-1-methyl-5-(trifluoromethyl)-1H-pyrazol-3-yl]-2,2-dimethyl-9-fluoro-5H-pyrazino[1,2,3-de]-1,4-benzoxazine-3,6(2H, 7H)-dione]	100	100	97	95	100	98	85	90	85	100	80	100	100	50	70	100	60	75	0	50	Pre-emerge crop damage CORN (phytotoxicity rating) [12, 33]: 50; Pre-emerge crop damage SOY (phytotoxicity rating) [13, 34]: 50; Pre-emerge crop damage RICE (phytotoxicity rating) [14, 35]: 0; Pre-emerge crop damage WHEAT (phytotoxicity rating) [15, 36]: 0; Post-emerge Herbicidal Activity SOH (phytotoxicity rating) [25]: 0; Post-emerge Herbicidal Activity DIS (phytotoxicity rating) [26]: 0; Post-emerge crop damage CORN (phytotoxicity rating) [27, 33]: 0; Post-emerge crop damage SOY (phytotoxicity rating) [28, 34]: 0; Post-emerge crop damage RICE (phytotoxicity rating) [29, 35]: 0; Post-emerge crop damage WHEAT (phytotoxicity rating) [30, 36]: 0
CC1C(=O)Nc2c(-c3nn(C)c(C(F)(F)F)c3Cl)c(F)cc3c2N1C(=O)C(C)(C)O3 (stereo not drawn) [1-54]	100	100	99	75	100	95	90	98	85	99	95	80	100	40	60	99	80	65	65	0	Pre-emerge crop damage CORN (phytotoxicity rating) [12, 31]: 55; Pre-emerge crop damage SOY (phytotoxicity rating) [13, 31]: 55; Pre-emerge crop damage RICE (phytotoxicity rating) [14, 31]: 0; Pre-emerge crop damage WHEAT (phytotoxicity rating) [15, 31]: 0; Post-emerge Herbicidal Activity SOH (phytotoxicity rating) [25]: 0; Post-emerge Herbicidal Activity DIS (phytotoxicity rating) [26]: 0; Post-emerge crop damage CORN (phytotoxicity rating) [27, 32]: 0; Post-emerge crop damage SOY (phytotoxicity rating) [28, 32]: 45; Post-emerge crop damage RICE (phytotoxicity rating) [29, 32]: 0; Post-emerge crop damage WHEAT (phytotoxicity rating) [30, 32]: 0
C[C@H]1Oc2cc(F)c(-c3nn(C)c(OC(F)F)c3Cl)c3c2N(CC(=O)N3)C1=O [1-55, 8-[-4-Chloro-5-(difluoromethoxy)-1-methyl-1H-pyrazol-3-yl)-9-fluoro-2-R-methyl-5H-pyrazino[1,2,3-de]-1,4-benzoxazine-3,6(2H, 7H)-dione]	100	99	100	100	100	100	95	100	100	100	100	100	100	99	100	100	85	100	99	95	Pre-emerge crop damage CORN (phytotoxicity rating) [12, 33]: 20; Pre-emerge crop damage SOY (phytotoxicity rating) [13, 34]: 60; Pre-emerge crop damage RICE (phytotoxicity rating) [14, 35]: 40; Pre-emerge crop damage WHEAT (phytotoxicity rating) [15, 36]: 3; Post-emerge Herbicidal Activity SOH (phytotoxicity rating) [25]: 50; Post-emerge Herbicidal Activity DIS (phytotoxicity rating) [26]: 35; Post-emerge crop damage CORN (phytotoxicity rating) [27, 33]: 15; Post-emerge crop damage SOY (phytotoxicity rating) [28, 34]: 75; Post-emerge crop damage RICE (phytotoxicity rating) [29, 35]: 75; Post-emerge crop damage WHEAT (phytotoxicity rating) [30, 36]: 50

Reference: patent publication US6770596B1, “Fused tricyclic compounds, process for their preparation, and herbicidal compositions containing them” (Ishihara Sangyo Kaisha Ltd., priority 2002, dated 2004)
